From article PMC9555642 (PLoS ONE, 2022)

What was measured:
HDAC5 = biological target: T1, HDAC5 (Homo sapiens, UniProt Q9UQL6); assay: HDAC enzymatic activity (Eurofins); assay type: biochemical; conditions: Class IIA; ACY-1083 mean of two separate measurements, Ricolinostat and Tubastatin A one measurement
T1 construct: purchased Eurofins Pharma Discovery Services 2494

HDAC6 = biological target: T2, HDAC6 (Homo sapiens, UniProt Q9UBN7); assay: HDAC enzymatic activity (Eurofins); assay type: biochemical; conditions: Class IIB; ACY-1083 mean of two separate measurements, Ricolinostat and Tubastatin A one measurement
T2 sequence (Q9UBN7 1-1215): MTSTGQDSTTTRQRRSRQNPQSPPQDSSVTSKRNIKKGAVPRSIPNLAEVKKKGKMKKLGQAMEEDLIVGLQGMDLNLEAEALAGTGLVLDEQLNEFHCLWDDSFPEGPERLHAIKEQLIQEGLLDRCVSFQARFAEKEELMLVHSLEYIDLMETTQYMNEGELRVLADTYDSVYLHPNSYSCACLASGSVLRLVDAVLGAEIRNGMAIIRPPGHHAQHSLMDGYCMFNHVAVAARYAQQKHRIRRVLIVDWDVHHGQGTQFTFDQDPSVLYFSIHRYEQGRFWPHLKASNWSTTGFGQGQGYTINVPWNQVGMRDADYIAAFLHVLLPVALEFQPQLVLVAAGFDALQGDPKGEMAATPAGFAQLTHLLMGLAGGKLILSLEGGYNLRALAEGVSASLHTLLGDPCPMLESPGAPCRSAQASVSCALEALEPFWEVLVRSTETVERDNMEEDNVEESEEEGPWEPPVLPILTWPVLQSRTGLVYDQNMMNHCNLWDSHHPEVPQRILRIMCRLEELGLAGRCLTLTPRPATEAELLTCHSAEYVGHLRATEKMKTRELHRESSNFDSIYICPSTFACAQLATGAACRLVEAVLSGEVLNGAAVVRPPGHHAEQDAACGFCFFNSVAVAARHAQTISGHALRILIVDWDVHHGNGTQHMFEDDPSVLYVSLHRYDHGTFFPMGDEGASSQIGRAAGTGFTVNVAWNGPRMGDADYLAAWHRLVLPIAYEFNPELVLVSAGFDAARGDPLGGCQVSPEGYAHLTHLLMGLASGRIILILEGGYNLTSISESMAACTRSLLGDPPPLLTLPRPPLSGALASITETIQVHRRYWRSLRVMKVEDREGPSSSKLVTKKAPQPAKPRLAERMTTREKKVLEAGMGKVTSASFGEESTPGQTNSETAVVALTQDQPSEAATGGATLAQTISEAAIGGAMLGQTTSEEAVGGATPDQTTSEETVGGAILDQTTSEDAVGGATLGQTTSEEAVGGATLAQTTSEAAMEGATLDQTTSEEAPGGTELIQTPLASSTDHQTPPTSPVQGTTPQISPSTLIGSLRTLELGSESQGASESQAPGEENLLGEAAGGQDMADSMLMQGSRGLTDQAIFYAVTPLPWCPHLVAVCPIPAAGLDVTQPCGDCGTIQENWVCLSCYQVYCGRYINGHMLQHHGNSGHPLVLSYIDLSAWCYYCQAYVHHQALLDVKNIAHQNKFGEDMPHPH

HDAC10 = biological target: T3, HDAC10 (Homo sapiens, UniProt Q969S8); assay: HDAC enzymatic activity (Eurofins); assay type: biochemical; conditions: Class IIB; ACY-1083 mean of two separate measurements, Ricolinostat and Tubastatin A one measurement
T3 construct: purchased Eurofins Pharma Discovery Services 2662
T3 sequence (Q969S8 1-669): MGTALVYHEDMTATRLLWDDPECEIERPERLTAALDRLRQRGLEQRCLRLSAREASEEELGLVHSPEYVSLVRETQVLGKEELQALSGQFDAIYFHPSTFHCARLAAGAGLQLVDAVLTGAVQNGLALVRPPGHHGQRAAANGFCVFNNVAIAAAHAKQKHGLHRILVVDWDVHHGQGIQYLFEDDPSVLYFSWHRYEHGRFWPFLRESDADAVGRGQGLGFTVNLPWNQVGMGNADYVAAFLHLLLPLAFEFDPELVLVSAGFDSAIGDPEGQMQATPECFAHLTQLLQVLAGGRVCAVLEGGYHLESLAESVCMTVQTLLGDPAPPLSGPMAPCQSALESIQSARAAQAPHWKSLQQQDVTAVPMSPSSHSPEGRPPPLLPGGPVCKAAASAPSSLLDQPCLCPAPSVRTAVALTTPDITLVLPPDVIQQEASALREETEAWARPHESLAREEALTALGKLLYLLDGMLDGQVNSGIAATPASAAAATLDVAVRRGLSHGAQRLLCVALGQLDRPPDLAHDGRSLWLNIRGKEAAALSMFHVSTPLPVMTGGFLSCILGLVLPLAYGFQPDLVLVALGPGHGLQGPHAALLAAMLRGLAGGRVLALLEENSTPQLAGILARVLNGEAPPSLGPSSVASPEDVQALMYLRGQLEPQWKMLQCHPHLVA

COPD HBEC ALI cultures = assay: AB/PAS staining and quantification of cellular features from IHC sections, TNF challenge; assay type: cell-based, human
Protocol: Eight days post-treatment, HBEC ALI-cultures were fixed in 4% paraformaldehyde for fifteen minutes and washed three times in PBS. Dehydration in ethanol and xylene followed by paraffin (Merck, New Jersey, USA) infiltration was done with a short program for biopsies (1 hour 55 minutes) on a Microm STP 120 Spin Tissue Processor (Thermo Fisher Scientific). Cell layers were embedded in paraffin and 4 μm thick sections were made using a Leica RM2165 microtome (Leica, Wetzlar, Germany). Alcian Blue/Periodic Acid-Schiff (AB/PAS) with Haematoxylin staining were performed using standard protocols on a Leica ST5020. After staining, the sections were dehydrated in ethanol and xylene, mounted with Pertex mounting medium (Histolab, Göteborg, Sweden) and scanned with a Aperio Scanscope slide scanner (Leica Biosystems, Buffalo Grove, USA).
IHC images were analyzed in HALO v3.1 (Indica Labs). For all analyses, images were annotated manually to exclude out of focus and damaged areas, and a random forest classifier was applied to intact areas of the sections to detect epithelial areas. All following analyses were done in epithelial areas only. For goblet cell counting, algorithm CytoNuclear 2.0.9 was used to segment cells based on nuclear staining and categorize them as AB/PAS (mucin) positive and negative cells based on cytoplasmic AB staining. Goblet cell counting was represented as the percentage of AB positive cells of total cells.
To measure epithelial thickness, the apical and basal sides of the epithelium in the sections were manually delineated using a pen annotation tool. Distance between paired apical and basal annotations was measured every 10 μm along the epithelium, and recorded in sequence as epithelial thickness.
To measure intraepithelial and intercellular AB staining, algorithm Area Quantification v2.1.7 was used. Two thresholds were applied to capture AB staining: a lower one to detect all AB staining in both goblet cells and intercellular areas, and a higher one to detect the stronger AB staining inside goblet cells only. Intercellular AB area was calculated by subtracting goblet AB staining (higher threshold) from total AB staining (by lower threshold).

T1 sequence (Q9UQL6 whole entry): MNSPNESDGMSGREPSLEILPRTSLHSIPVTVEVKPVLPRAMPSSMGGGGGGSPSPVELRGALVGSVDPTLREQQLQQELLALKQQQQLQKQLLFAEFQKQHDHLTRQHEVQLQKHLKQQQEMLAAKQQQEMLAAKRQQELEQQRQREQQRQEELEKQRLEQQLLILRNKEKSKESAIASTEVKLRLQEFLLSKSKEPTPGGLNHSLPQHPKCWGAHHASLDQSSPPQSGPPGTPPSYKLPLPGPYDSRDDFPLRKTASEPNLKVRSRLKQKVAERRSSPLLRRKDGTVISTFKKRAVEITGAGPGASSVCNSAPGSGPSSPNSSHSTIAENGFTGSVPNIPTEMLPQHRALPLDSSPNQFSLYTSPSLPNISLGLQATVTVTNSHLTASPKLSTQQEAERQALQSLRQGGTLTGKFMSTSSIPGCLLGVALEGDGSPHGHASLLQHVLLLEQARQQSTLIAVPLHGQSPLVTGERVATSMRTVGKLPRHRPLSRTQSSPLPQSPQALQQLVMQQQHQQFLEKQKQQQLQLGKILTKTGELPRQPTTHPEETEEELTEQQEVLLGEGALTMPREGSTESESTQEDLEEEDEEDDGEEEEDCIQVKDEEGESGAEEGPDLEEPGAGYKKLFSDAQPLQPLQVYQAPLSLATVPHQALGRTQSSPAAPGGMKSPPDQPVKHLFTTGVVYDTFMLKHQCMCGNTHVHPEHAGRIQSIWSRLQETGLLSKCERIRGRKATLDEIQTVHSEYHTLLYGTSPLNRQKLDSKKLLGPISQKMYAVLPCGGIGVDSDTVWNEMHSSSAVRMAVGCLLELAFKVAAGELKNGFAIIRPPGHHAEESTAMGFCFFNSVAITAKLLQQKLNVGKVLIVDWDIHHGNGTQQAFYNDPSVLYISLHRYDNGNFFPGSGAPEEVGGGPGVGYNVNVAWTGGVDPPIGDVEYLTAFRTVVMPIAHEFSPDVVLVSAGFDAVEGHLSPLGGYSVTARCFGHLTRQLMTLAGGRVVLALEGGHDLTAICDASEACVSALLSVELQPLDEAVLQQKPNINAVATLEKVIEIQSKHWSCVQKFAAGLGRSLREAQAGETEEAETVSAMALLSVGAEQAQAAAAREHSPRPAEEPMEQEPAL

Substance: ACY-1083
- IC50 (HDAC5): 4.17 µM
- IC50 (HDAC6): < 0.01 µM
- IC50 (HDAC10): 18.5 µM
- intraepithelial and intercellular AB area (COPD HBEC ALI cultures; TNF 20 ng/ml + ACY-1083, p<0.0001): reduced to the no-TNF level
- percentage of goblet cells (COPD HBEC ALI cultures; TNF 20 ng/ml + ACY-1083, vs no-TNF DMSO control or TNF DMSO culture): increased but did not differ significantly
- epithelial thickness variation (variance in height) (COPD HBEC ALI cultures; TNF-challenged wells, four donors, p<0.001): smaller
- goblet cell percentage (COPD HBEC ALI cultures; only ACY-1083 vs no-TNF DMSO): No difference
